# Test results: paper PMC9232612, “A phase 1b randomised controlled trial of a glucagon-like peptide-1 and glucagon receptor dual agonist IBI362 (LY3305677) in Chinese patients with type 2 diabetes” (Nature Communications, 2022)
# “And” between values parts separate entries of the source, which are not always exact repeats. Equal entries are not always repeated.
# What was measured:
# Type in all cases: in vivo, human
# [1] = test system: Chinese patients with T2D; assay: Alanine aminotransferase and aspartate aminotransferase levels
# Text: Primary outcomes of the study were the safety and tolerability of IBI362. Safety assessment included adverse events, physical examinations, laboratory tests (including lipase, amylase and calcitonin level measures), vital signs and 12-lead electrocardiogram. Adverse events were categorized according to the Medical Dictionary for Regulatory Activities system organ classes (SOCs) and preferred terms. Treatment-emergent adverse events (TEAEs) were monitored from the time of informed consent to the safety follow-up period. The severity of TEAEs (mild, moderate or severe) and the association between an event and the study drug were assessed by investigators based on pre-specified criteria.
# CFB in ALT (U/L), mean (SD)
# CFB in AST (U/L), mean (SD)
# Fig. S2: Change from baseline in ALT and AST levels over time.
# a. CFB in ALT levels over time. b. CFB in AST levels over time. Data are plotted as means +/- SD.
# ALT = alanine aminotransferase; AST = aspartate aminotransferase; CFB = change from baseline;
# SD = standard deviation. Source data are provided as a Source Data file. […]
# [2] = test system: Chinese patients with T2D; assay: Fasting plasma glucose (FPG); settings: MMRM; for Change from baseline in fasting plasma glucose, LS mean (SE) / Fasting plasma glucose: ETD versus placebo, LS mean (90% CI): week 12
# Procedure: (§1) HbA1c (2200101, Bio-Rad, USA), blood glucose (05168791190, Roche Diagnostics, Germany), insulin (12017547122, Roche Diagnostics, Germany), C peptide (03184897190, Roche Diagnostics, Germany), total GLP-1 (GLP-1 [7–36] amide and its metabolite, GLP-1 [9–36] amide, 10-1278-01, Mercodia AB, Sweden) and OXM (AL-139, AnshLabs, USA) tests were performed according to the manufactures’ instruction manuals in a central laboratory (KingMed Diagnostics, Guangzhou, China). HbA1c was measured using a Bio-rad D-100 Haemoglobin Testing System (Bio-rad). Blood glucose was measured using a Roche Cobas c702 analyser (Roche Diagnostics). Insulin and C peptide were measured using a Roche […] analyser (Roche Diagnostics). GLP-1 and OXM were measured using a Tecan Infinite M Plex microplate reader (TECAN).
# (§2) Standard non-compartmental pharmacokinetics methods were used to analyze IBI362 plasma concentration data using Pkanalix 2020R1 (Lixoft, Antony, France). Secondary efficacy outcomes included change from baseline to week 12 in HbA1c, fasting plasma glucose (FPG), fasting insulin levels, change from baseline to week 12 in post-mixed-meal tolerance test (post-MTT) glucose, insulin, C peptide, GLP-1 and OXM levels, as well as seven-point self-measured blood glucose (SMBG) profile.
# The analyses for change from baseline in HbA1c, FPG, post-MTT glucose AUC0–4 h and body weight were performed using the mixed-effect model for repeated measures (MMRM) with least-squares means and standard error provided. The MMRM included the corresponding baseline value, treatment, visit and treatment-by-visit as fixed effects and patient as a random effect. Mean change or mean percent change from baseline were analysed using a restricted maximum likelihood (REML)‐based repeated measures approach in combination with the Newton Raphson Algorithm. The fix effect of visit was fitted as a repeated effect and an unstructured covariance matrix was used. In case of non-converge, matrix like Variance Components and Compound Symmetry will be tested in a subsequent order until model‐convergence is achieved. The Kenward-Roger degree of freedom was used in estimating fixed effects. No missing data imputation was conducted. For HbA1c, FPG and body weight, point estimate of treatment difference versus placebo and 90% CI were provided for each IBI362 dose group and the dulaglutide group, with nominal p values.
# [3] = test system: Chinese patients with T2D; assay: Mixed-meal tolerance test (MTT): insulin
# Procedure: as §1
# as §2, with “profile. […]” for “profile.”
# 3. Standard meal test (MTT) collection measures included: insulin, C-peptide, plasma glucose, glucagon, endogenous OXM, and endogenous GLP-1. The sampling points include: fasting, 30 min, 1h, 2h, 3h and 4h.
# A total of 9 mL blood will be collected from each blood collection point. See the manual of the central laboratory for the detailed operation process. Fasting state refers to fasting for 10 hours. [ The standard meal is
# instant noodles. The master Kang roast beef noodles (bucket noodles) purchased by the sponsor in a unified manner are removed from the oil bag. The noodles are soaked in boiled water and then removed. The seasoning
# bag is added and mixed well. The time is counted from the first bite of eating. The noodles are eaten within 10 minutes, and 200 mL of water is drunk; or the instant noodles are directly opened with 200 mL of boiled
# water to ensure that the noodles are eaten and the water or soup is drunk]. Visit days when MTT test is performed: 1 day prior to Cycle 1 administration, Day 80 (D80). […]
# ● Test by central laboratory
molecule,measurement,setting,value
CC(C)C[C@H](NC(=O)[C@H](CC(C)C)NC(=O)[C@H](Cc1c[nH]c2ccccc12)NC(=O)[C@H](CCC(=O)O)NC(=O)[C@@H](NC(=O)[C@H](Cc1ccccc1)NC(=O)[C@H](CCC(=O)O)NC(=O)[C@H](CCCCNC(=O)COCCOCCNC(=O)COCCOCCNC(=O)CC[C@H](NC(=O)CCCCCCCCCCCCCCCCCCC(=O)O)C(=O)O)NC(=O)[C@H](C)NC(=O)[C@H](CCCCN)NC(=O)[C@H](CCCCN)NC(=O)[C@H](CCC(=O)O)NC(=O)[C@H](CC(=O)O)NC(=O)[C@H](CC(C)C)NC(=O)[C@H](Cc1ccc(O)cc1)NC(=O)[C@H](CCCCN)NC(=O)[C@H](CO)NC(=O)[C@H](Cc1ccc(O)cc1)NC(=O)[C@H](CC(=O)O)NC(=O)[C@H](CO)NC(=O)[C@@H](NC(=O)[C@H](Cc1ccccc1)NC(=O)[C@@H](NC(=O)CNC(=O)[C@H](CCC(N)=O)NC(=O)C(C)(C)NC(=O)[C@@H](N)Cc1c[nH]cn1)[C@@H](C)O)[C@@H](C)O)C(C)C)C(=O)N[C@@H](CCC(=O)O)C(=O)NCC(=O)NCC(=O)N1CCC[C@H]1C(=O)N[C@@H](CO)C(=O)N[C@@H](CO)C(=O)NCC(N)=O [IBI362],"Change from baseline in ALT, mean","[1]; week 4, 3.0 mg cohort",3.76 U/L
same,"Change from baseline in AST, mean","[1]; week 4, 3.0 mg cohort",1.13 U/L
same,"Change from baseline in ALT, mean","[1]; week 4, 4.5 mg cohort",-3.50 U/L
same,"Change from baseline in AST, mean","[1]; week 4, 4.5 mg cohort",-2.03 U/L
same,"Change from baseline in ALT, mean","[1]; week 4, 6.0 mg cohort",-7.38 U/L
same,"Change from baseline in AST, mean","[1]; week 4, 6.0 mg cohort",-2.56 U/L
same,"Change from baseline in ALT, mean","[1]; week 8, 3.0 mg cohort",-6.34 U/L
same,"Change from baseline in AST, mean","[1]; week 8, 3.0 mg cohort",-1.20 U/L
same,"Change from baseline in ALT, mean","[1]; week 8, 4.5 mg cohort",-7.66 U/L
same,"Change from baseline in AST, mean","[1]; week 8, 4.5 mg cohort",-1.26 U/L
same,"Change from baseline in ALT, mean","[1]; week 8, 6.0 mg cohort",-8.50 U/L
same,"Change from baseline in AST, mean","[1]; week 8, 6.0 mg cohort",-3.36 U/L
same,"Change from baseline in ALT, mean","[1]; week 12, 3.0 mg cohort",-6.34 U/L
same,"Change from baseline in AST, mean","[1]; week 12, 3.0 mg cohort",-2.49 U/L
same,"Change from baseline in ALT, mean","[1]; week 12, 4.5 mg cohort",-10.66 U/L
same,"Change from baseline in AST, mean","[1]; week 12, 4.5 mg cohort",-2.82 U/L
same,"Change from baseline in ALT, mean","[1]; week 12, 6.0 mg cohort",-8.38 U/L
same,"Change from baseline in AST, mean","[1]; week 12, 6.0 mg cohort",-4.65 U/L
same,"Change from baseline in fasting plasma glucose, LS mean","[2]; week 4, 3.0 mg cohort, n=8",-2.29 mmol/L
same,"Change from baseline in fasting plasma glucose, LS mean","[2]; week 4, 4.5 mg cohort, n=8",-2.47 mmol/L
same,"Change from baseline in fasting plasma glucose, LS mean","[2]; week 4, 6.0 mg cohort, n=8",-3.03 mmol/L
same,"Change from baseline in fasting plasma glucose, LS mean","[2]; week 8, 3.0 mg cohort, n=8",-2.95 mmol/L
same,"Change from baseline in fasting plasma glucose, LS mean","[2]; week 8, 4.5 mg cohort, n=8",-3.38 mmol/L
same,"Change from baseline in fasting plasma glucose, LS mean","[2]; week 8, 6.0 mg cohort, n=8",-3.50 mmol/L
same,"Change from baseline in fasting plasma glucose, LS mean (SE)","[2]; 3.0 mg cohort, n=8",−3.38 (0.49) mmol/L and −3.38 mmol/L
same,"Fasting plasma glucose: ETD versus placebo, LS mean (90% CI)",[2]; 3.0 mg cohort,-0.85 mmol/L
same,"Change from baseline in fasting plasma glucose, LS mean (SE)","[2]; 4.5 mg cohort, n=8",-3.82 mmol/L
same,"Fasting plasma glucose: ETD versus placebo, LS mean (90% CI)",[2]; 4.5 mg cohort,-1.30 mmol/L
same,"Change from baseline in fasting plasma glucose, LS mean (SE)","[2]; 6.0 mg cohort, n=8",-4.07 mmol/L
same,"Insulin during MTT, mean","[3]; week 12, 0 min, 3.0 mg cohort, n=7",9.22 μU/mL
same,"Insulin during MTT, mean","[3]; week 12, 0 min, 4.5 mg cohort, n=5",13.41 μU/mL
same,"Insulin during MTT, mean","[3]; week 12, 0 min, 6.0 mg cohort, n=8",13.25 μU/mL
same,"Insulin during MTT, mean","[3]; week 12, 30 min, 3.0 mg cohort, n=7",17.47 μU/mL
same,"Insulin during MTT, mean","[3]; week 12, 30 min, 4.5 mg cohort, n=5",22.16 μU/mL
same,"Insulin during MTT, mean","[3]; week 12, 30 min, 6.0 mg cohort, n=8",22.08 μU/mL
same,"Insulin during MTT, mean","[3]; week 12, 60 min, 3.0 mg cohort, n=7",34.23 μU/mL
same,"Insulin during MTT, mean","[3]; week 12, 60 min, 4.5 mg cohort, n=5",41.02 μU/mL
same,"Insulin during MTT, mean","[3]; week 12, 60 min, 6.0 mg cohort, n=8",41.49 μU/mL
same,"Insulin during MTT, mean","[3]; week 12, 120 min, 3.0 mg cohort, n=7",57.20 μU/mL
same,"Insulin during MTT, mean","[3]; week 12, 120 min, 4.5 mg cohort, n=5",45.65 μU/mL
same,"Insulin during MTT, mean","[3]; week 12, 120 min, 6.0 mg cohort, n=8",64.69 μU/mL
same,"Insulin during MTT, mean","[3]; week 12, 180 min, 3.0 mg cohort, n=7",39.93 μU/mL
same,"Insulin during MTT, mean","[3]; week 12, 180 min, 4.5 mg cohort, n=5",50.30 μU/mL
same,"Insulin during MTT, mean","[3]; week 12, 180 min, 6.0 mg cohort, n=8",46.96 μU/mL
same,"Insulin during MTT, mean","[3]; week 12, 240 min, 3.0 mg cohort, n=7",23.01 μU/mL
same,"Insulin during MTT, mean","[3]; week 12, 240 min, 4.5 mg cohort, n=5",25.01 μU/mL
same,"Insulin during MTT, mean","[3]; week 12, 240 min, 6.0 mg cohort, n=8",24.25 μU/mL
"Dulaglutide: open-label active reference, subcutaneously once weekly at a fixed dose of 1.5 mg [reference compound]","Change from baseline in ALT, mean","[1]; week 4, 1.5 mg once weekly",-3.70 U/L
same,"Change from baseline in AST, mean","[1]; week 4, 1.5 mg once weekly",0.83 U/L
same,"Change from baseline in ALT, mean","[1]; week 8, 1.5 mg once weekly",-4.33 U/L
same,"Change from baseline in AST, mean","[1]; week 8, 1.5 mg once weekly",1.53 U/L
same,"Change from baseline in ALT, mean","[1]; week 12, 1.5 mg once weekly",-6.92 U/L
same,"Change from baseline in AST, mean","[1]; week 12, 1.5 mg once weekly",1.58 U/L
same,"Change from baseline in fasting plasma glucose, LS mean","[2]; week 4, 1.5 mg once weekly, n=6",-3.19 mmol/L
same,"Change from baseline in fasting plasma glucose, LS mean","[2]; week 8, 1.5 mg once weekly, n=6",-3.36 mmol/L
same,"Change from baseline in fasting plasma glucose, LS mean (SE)","[2]; 1.5 mg once weekly, n=6",-3.85 mmol/L
same,"Fasting plasma glucose: ETD versus placebo, LS mean (90% CI)",[2]; 1.5 mg once weekly,-1.32 mmol/L
same,"Insulin during MTT, mean","[3]; week 12, 0 min, 1.5 mg once weekly, n=6",13.40 μU/mL
same,"Insulin during MTT, mean","[3]; week 12, 30 min, 1.5 mg once weekly, n=6",30.21 μU/mL
same,"Insulin during MTT, mean","[3]; week 12, 60 min, 1.5 mg once weekly, n=6",53.77 μU/mL
same,"Insulin during MTT, mean","[3]; week 12, 120 min, 1.5 mg once weekly, n=6",63.25 μU/mL
same,"Insulin during MTT, mean","[3]; week 12, 180 min, 1.5 mg once weekly, n=6",30.85 μU/mL
same,"Insulin during MTT, mean","[3]; week 12, 240 min, 1.5 mg once weekly, n=6",21.56 μU/mL
